# From patent US8779129B2, “Triazinedione derivatives as GABAB receptor modulators” (Addex Pharma S.A., priority 2006, dated 2014)
row,SMILES,melting point [°C]
1,CC(=O)Nc1cccc(-n2nc(CN(C)C)c(=O)n(Cc3ccc(Cl)cc3)c2=O)c1.Cl,143
2,"CC(=O)Nc1cccc(-n2nc(C#N)c(=O)n(Cc3ccc(Cl)cc3)c2=O)c1 [1.01, N-(3-(4-(4-chlorobenzyl)-6-cyano-3,5-dioxo-4,5-dihydro-1,2,4-triazin-2(3H)-yl)phenyl)acetamide]",196
3,"CC(=O)Nc1cccc(-n2ncc(=O)n(Cc3ccc(Cl)cc3)c2=O)c1 [2.01, N-(3-(4-(4-chlorobenzyl)-3,5-dioxo-4,5-dihydro-1,2,4-triazin-2(3H)-yl)phenyl)acetamide]",171 to 172
4,"CC(=O)Nc1cccc(-n2ncc(=O)n(Cc3ccc(C#N)cc3)c2=O)c1 [2.05, N-(3-(4-(4-cyanobenzyl)-3,5-dioxo-4,5-dihydro-1,2,4-triazin-2(3H)-yl)phenyl)acetamide]",184 to 185
5,"CC(=O)Nc1cccc(-n2ncc(=O)n(Cc3ccc(Cl)cc3F)c2=O)c1 [2.20, N-(3-(4-(4-chloro-2-fluorobenzyl)-3,5-dioxo-4,5-dihydro-1,2,4-triazin-2(3H)-yl)phenyl)acetamide]",184
6,"CC(=O)Nc1cccc(-n2nc(C)c(=O)n(Cc3ccc(Cl)cc3)c2=O)c1 [3.01, N-(3-(4-(4-chlorobenzyl)-6-methyl-3,5-dioxo-4,5-dihydro-1,2,4-triazin-2(3H)-yl)phenyl)acetamide]",168
7,"COc1nn(-c2cccc(NC(C)=O)c2)c(=O)n(Cc2ccc(Cl)cc2)c1=O [4.01, N-(3-(4-(4-chlorobenzyl)-6-methoxy-3,5-dioxo-4,5-dihydro-1,2,4-triazin-2(3H)-yl)phenyl)acetamide]",190 to 191
8,"COc1nn(-c2cccc(NC(C)=O)c2)c(=O)n(Cc2ccc3c(c2)OC(F)(F)O3)c1=O [4.127, N-(3-(4-((2,2-difluorobenzo[d][1,3]dioxol-5-yl)methyl)-6-methoxy-3,5-dioxo-4,5-dihydro-1,2,4-triazin-2(3H)-yl)phenyl)acetamide]",184
9,"COc1nn(-c2cccc(N(C)C(C)=O)c2)c(=O)n(Cc2ccc(Cl)cc2)c1=O [4.133, N-(3-(4-(4-chlorobenzyl)-6-methoxy-3,5-dioxo-4,5-dihydro-1,2,4-triazin-2(3H)-yl)phenyl)-N-methylacetamide]",157
10,"COCC(=O)Nc1cccc(-n2nc(OC)c(=O)n(Cc3ccc(Cl)cc3)c2=O)c1 [4.141, N-(3-(4-(4-chlorobenzyl)-6-methoxy-3,5-dioxo-4,5-dihydro-1,2,4-triazin-2(3H)-yl)phenyl)-2-methoxyacetamide]",143
11,"COc1nn(-c2ccccc2O)c(=O)n(Cc2ccc(Cl)cc2)c1=O [4.143, 4-(4-chlorobenzyl)-2-(2-hydroxyphenyl)-6-methoxy-1,2,4-triazine-3,5(2H,4H)-dione]",164 to 165
12,"COc1nn(-c2cccc(Nc3nccs3)c2)c(=O)n(Cc2ccc(Cl)cc2)c1=O [4.144, 4-(4-chlorobenzyl)-6-methoxy-2-(3-(thiazol-2-ylamino)phenyl)-1,2,4-triazine-3,5(2H,4H)-dione]",176 to 178
13,"COc1nn(-c2cccc(N3CCCC3=O)c2)c(=O)n(Cc2ccc(Cl)cc2)c1=O [4.145, 4-(4-chlorobenzyl)-6-methoxy-2-(3-(2-oxopyrrolidin-1-yl)phenyl)-1,2,4-triazine-3,5(2H,4H)-dione]",91 to 93
14,"COc1nn(-c2cccc(-c3noc(C)n3)c2)c(=O)n(Cc2ccc(Cl)cc2)c1=O [4.146, 4-(4-chlorobenzyl)-6-methoxy-2-(3-(5-methyl-1,2,4-oxadiazol-3-yl)phenyl)-1,2,4-triazine-3,5(2H,4H)-dione]",163 to 165

# The remaining lines, values ahead:
row,melting point [°C],SMILES
1,178,"CC(=O)Nc1cccc(-n2nc(C(C)C)c(=O)n(Cc3ccc(Cl)cc3)c2=O)c1 [5.01, N-(3-(4-(4-chlorobenzyl)-6-isopropyl-3,5-dioxo-4,5-dihydro-1,2,4-triazin-2(3H)-yl)phenyl)acetamide]"
2,189 to 190,"CC(=O)Nc1cccc(-n2nc(N(C)C)c(=O)n(Cc3ccc(Cl)cc3)c2=O)c1 [5.13, N-(3-(4-(4-chlorobenzyl)-6-(dimethylamino)-3,5-dioxo-4,5-dihydro-1,2,4-triazin-2(3H)-yl)phenyl)acetamide]"
3,97,"COCc1nn(-c2cccc(NC(C)=O)c2)c(=O)n(Cc2ccc(Cl)cc2)c1=O [5.16, N-(3-(4-(4-chlorobenzyl)-6-(methoxymethyl)-3,5-dioxo-4,5-dihydro-1,2,4-triazin-2(3H)-yl)phenyl)acetamide]"
4,193,"COC(=O)c1nn(-c2cccc(NC(C)=O)c2)c(=O)n(Cc2ccc(Cl)cc2)c1=O [5.17, Methyl 4-(4-chlorobenzyl)-2-(3-acetamidophenyl)-3,5-dioxo-2,3,4,5-tetrahydro-1,2,4-triazine-6-carboxylate]"
5,183,"CC(=O)Nc1cccc(-n2nc(C(=O)OC(C)C)c(=O)n(Cc3ccc(Cl)cc3)c2=O)c1 [5.18, Isopropyl 2-(3-acetamidophenyl)-4-(4-chlorobenzyl)-3,5-dioxo-2,3,4,5-tetrahydro-1,2,4-triazine-6-carboxylate]"
